Holding throughout (type): in vivo
What all share (conditions): 144 h, single compound, after 6 d

Assay [1] concerns Tetranychus urticae. Description: Tetranychus test (OP-resistant), sprayed bean plants. How it is done: (§1) To produce a suitable preparation of active compound, 1 part by weight of active compound is mixed with the stated amount of solvent and emulsifier, and the concentrate is diluted with emulsifier-containing water to the desired concentration.
Bean plants (Phaseolus vulgaris) which are heavily infested with all stages of the two-spotted spider mite (Tetranychus urticae) are treated by being sprayed with the preparation of the active compound at the desired concentration.
After the specified period of time, mortality in % is determined. 100% means that all the spider mites have been killed; 0% means that none of the spider mites have been killed.

Assay [2] concerns Myzus persicae. The experiment in a line: Myzus persicae test, spray treatment of infested cabbage leaves. How it is done: as §1
Cabbage leaves (Brassica oleracea) which are heavily infested by the green peach aphid (Myzus persicae) are treated by being sprayed with the preparation of the active compound at the desired concentration.
After the specified period of time, the mortality in % is determined. 100% means that all the aphids have been killed; 0% means that none of the aphids have been killed.

Assay [3] has as its system Phaedon cochleariae. The experiment in a line: Phaedon cochleariae larvae test, sprayed cabbage leaves. How it is done:
as §1
Cabbage leaves (Brassica oleracea) are treated by being sprayed with the preparation of the active compound at the desired concentration and are infested with larvae of the mustard beetle (Phaedon cochleariae) as long as the leaves are still moist.
After the specified period of time, the mortality in % is determined. 100% means that all the beetle larvae have been killed; 0% means that none of the beetle larvae have been killed. According to the present application in this test e.g. the following combinations show a synergistic effect in comparison to the single compounds: […]

Assay [4] deals with Spodoptera frugiperda. Description: Spodoptera frugiperda test, sprayed cabbage leaves. How it is done: as §1
Cabbage leaves (Brassica oleracea) are treated by being sprayed with the preparation of the active compound at the desired concentration and are infested with larvae of the fall army worm (Spodoptera frugiperda) as long as the leaves are still moist.
After the specified period of time, the mortality in % is determined. 100% means that all the caterpillars have been killed; 0% means that none of the caterpillars have been killed. According to the present application in this test e.g. the following combinations show a synergistic effect in comparison to the single compounds: […]

SMILES strings stand for the structures.

Broadly, the mortality is the share of the test organisms that died. Consider `CC(C1CC1)C(O)(Cn1cncn1)c1ccc(Cl)cc1` (stereo not drawn) [Cyproconazole, cyproconazole], for which the mortality at 500 g/ha in assay [1] (500 g/ha), in assay [2] and in assay [3] was 0% each time.

As to `CC(C)C1CCC(Cc2ccc(Cl)cc2)C1(O)Cn1cncn1` (stereo not drawn) [Ipconazole, ipconazole], the mortality at 500 g/ha in assay [2], in assay [3] and in assay [4] was 0% in each case.

With `OC(Cc1ccccc1Cl)(Cn1nc[nH]c1=S)C1(Cl)CC1` (stereo not drawn) [Prothioconazole], the mortality at 500 g/ha in assay [2] worked out at 0%.

For the compound `CC(C)(C)C(O)(CCc1ccc(Cl)cc1)Cn1cncn1` (stereo not drawn) [Tebuconazole, tebuconazole], the mortality at 500 g/ha in assay [2], in assay [3] and in assay [4] was 0% each time.

Turning to `CC1(C)[C@H](C=C(Cl)Cl)[C@H]1C(=O)OCc1c(F)c(F)cc(F)c1F` [Transfluthrin], the mortality at 100 g/ha in assay [1] (100 g/ha) was found to be 0%; in assay [2] (100 g/ha), 80%. For the same compound, the mortality at 20 g/ha in assay [2] (20 g/ha) and in assay [3] (20 g/ha) was 0% each time. Besides, in assay [4] (4 g/ha), the mortality at 4 g/ha is 50%.

The values are drawn from US20110212834A1, “Pesticidal Compound Mixtures” (BAYER CROPSCIENCE AG, priority 2009, published 2011).
